Holding throughout (experiment): relative viability (nuclei count vs DMSO), 5 days (fraction); higher = more cells survive
Compound in the test “MLN4924 + Navitoclax”: NS(=O)(=O)OC[C@@H]1C[C@@H](n2ccc3c(N[C@H]4CCc5ccccc54)ncnc32)C[C@@H]1O [MLN4924] + CC1(C)CCC(c2ccc(Cl)cc2)=C(CN2CCN(c3ccc(C(=O)NS(=O)(=O)c4ccc(N[C@H](CCN5CCOCC5)CSc5ccccc5)c(S(=O)(=O)C(F)(F)F)c4)cc3)CC2)C1 [Navitoclax] (partner 0.5 µM)
A digest of the protocol:
(§1)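 Five library-drug doses in √10 steps were combined with a fixed anchor-drug dose, or a single drug was given alone, by pin tool to lung cancer cell lines in 1536-well plates the day after seeding. Nuclei were stained and counted after 5 days. Relative viability is the nuclei count in treated wells over that in vehicle wells, taken as the median of duplicate plates.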

Compound in the test “MLN4924 + Vorinostat”: NS(=O)(=O)OC[C@@H]1C[C@@H](n2ccc3c(N[C@H]4CCc5ccccc54)ncnc32)C[C@@H]1O [MLN4924] + O=C(CCCCCCC(=O)Nc1ccccc1)NO [Vorinostat] (partner 1 µM)
A digest of the protocol:
as §1

Compound in the test “Carboplatin + Linsitinib”: C1CC(C1)(C(=O)O)C(=O)O.[NH2-].[NH2-].[Pt+2] [Carboplatin] + C[C@]1(O)C[C@@H](c2nc(-c3ccc4ccc(-c5ccccc5)nc4c3)c3c(N)nccn32)C1 [Linsitinib] (partner 1 µM)
An outline of the steps: as §1

Compound in the test “GSK126 + Trametinib”: CC[C@H](C)N1C=C(C2=C(C=C(C=C21)C3=CN=C(C=C3)N4CCNCC4)C(=O)NCC5=C(C=C(NC5=O)C)C)C [GSK126] + CC(=O)Nc1cccc(-n2c(=O)n(C3CC3)c(=O)c3c(Nc4ccc(I)cc4F)n(C)c(=O)c(C)c32)c1 [Trametinib] (partner 0.02 µM)
An outline of the steps:
as §1

Consider UMC-11, for which the relative viability in the test with MLN4924 + Navitoclax (first compound 0.04 µM) was determined as 0.198; with MLN4924 + Navitoclax (first compound 0.1265 µM) it was 0.142; with MLN4924 + Navitoclax (first compound 0.4 µM) it was 0.167; with MLN4924 + Navitoclax (first compound 1.265 µM) it was 0.1; with MLN4924 + Navitoclax (first compound 4 µM), 0.112; with MLN4924 + Vorinostat (first compound 0.04 µM), 0.173. Also, the relative viability was 0.169 with MLN4924 + Vorinostat (first compound 0.1265 µM); 0.19 in the test with MLN4924 + Vorinostat (first compound 0.4 µM); 0.144 with MLN4924 + Vorinostat (first compound 1.265 µM); 0.116 with MLN4924 + Vorinostat (first compound 4 µM); 1.02 in the test with Carboplatin + Linsitinib (first compound 0.08 µM); 1.01 with Carboplatin + Linsitinib (first compound 0.253 µM). For the same cell line, the relative viability is 0.928 with Carboplatin + Linsitinib (first compound 0.8 µM); 0.98 with Carboplatin + Linsitinib (first compound 2.53 µM); 0.837 with Carboplatin + Linsitinib (first compound 8 µM); 0.744 with GSK126 + Trametinib (first compound 0.08 µM); 0.774 with GSK126 + Trametinib (first compound 0.253 µM); 0.771 with GSK126 + Trametinib (first compound 0.8 µM). Besides, the relative viability with GSK126 + Trametinib (first compound 2.53 µM) came to 0.714; in the test with GSK126 + Trametinib (first compound 8 µM), 0.728.

The values above are taken from the supplement of paper PMC10307832.
